Results: paper PMC6099735, “Piplartine Analogues and Cytotoxic Evaluation against Glioblastoma” (Molecules : A Journal of Synthetic Chemistry and Natural …, 2018)
Converted amounts (≈) assume the structure as drawn.

Experiments:
U87MG cells [1] = assay: MTT cell viability assay, cytotoxic activity against proliferation of U87MG cells; format: cell-based, human; details: for IC50: Homo sapiens, U-87 MG, MTT assay, 48 h exposure, 0.78-50 μg/mL, mean ± SEM of four experiments
Experimental: To evaluate the cytotoxic potential of compounds 2–19 against human U87MG, glioblastoma cells were used with several concentrations (0 to 50 μg/mL). After 48 h of incubation, cell viability rates were established by MTT and LDH analysis. IC50 values of each analogue were determined due to observed cell viability results after MTT assay. All tested analogues led to inhibition of cellular proliferation rates as compared to untreated cells in a clear concentration and compound type dependent manners, as illustrated in Table 1 and Figure 2.
Human glioblastoma (GBM) cell line U87MG (American Type Culture Collection; Rockville, MD, USA) within passage number 15–20 were grown in an incubator at 37 °C in a humidified atmosphere of 5% CO2. They were grown in Eagle’s Minimal Essential Medium from Sigma-Aldrich (Saint Louis, MO, USA), supplemented with 10% fetal bovine serum (FBS) and 100 μg/mL of each of the following antibiotics: penicillin and streptomycin [66].
To examine the effects of compounds on cell viability, an MTT assay was performed. U87MG cells were seeded at 1 × 10^4 cells per well in 96-well plate and allowed to attach for 24 h. Then the cells were exposed to different concentrations of 2–19 (0.78, 1.56, 3.125, 6.25, 12.5, 25 and 50 μg/mL) for 48 h. All the compounds were dissolved in dimethyl sulfoxide (DMSO), and diluted in serum-free culture medium. After the incubation, a 3-(4,5-dimethylthiazol-2-yl)-2,5-diphenyltetrazolium bromide (MTT) solution was applied to cell cultures according to the manufacturer’s instructions (Cayman Chemical Company®, Ann Arbor, MI, USA). After 3 h of incubation, MTT-formazan crystals were dissolved in DMSO and absorbance was measured at 570 nm on a plate reader and compared with control, untreated cells. The half-maximal inhibitory concentration values (IC50) were determined by MTT assay performed in four replicates.

U87MG cells [2] = assay: Apoptosis detection by Hoechst 33,258 staining; format: cell-based, human; details: 48 h at IC50 concentration, compared with control group
Experimental: Cell apoptosis induced by compound 10 was examined by Hoechst 33,258 staining and observed under a fluorescence microscope at 400× magnification.
The control and formulation treated cells were incubated for 48 h and were cultured in six-well cell culture plates for 48 h. after incubation, the medium was removed and the cells were fixed with 4% paraformaldehyde in phosphate buffered saline at 4 °C for 30 min. Following the washing cells three times with phosphate-buffered saline (PBS). The cells were then stained with 1 μL Hoechst 33,258 (5 μg/mL; Sigma-Aldrich, Saint Louis, MO, USA) and incubated at room temperature in the dark for 5 min. Changes in nuclear morphology were visualized under a fluorescent microscope (excitation, 350 nm; emission, 460 nm; Leica® DM IL LED, Wetzlar, Germany).

U87MG cells [3] = assay: Total antioxidant capacity (TAC) assay; format: cell-based, human; details: 48 h, concentrations 0.78 and 50 μg/mL, compared with controls
Experimental: (§1) The total antioxidant capacity (TAC) and the total oxidant status (TOS) levels were evaluated in samples from treated and untreated cultures using colorimetric measurement methods.
(§2) The commercially available kits were purchased from (Rel Assay Diagnostics®, Gaziantep, Turkey) to estimate the level of TAS and TOS. As a summary, the cells were seeded at 10^6 cells/well in 48-well plates, treated with compound 10 as described above. After 48 h incubation, plasma samples of treated and untreated cultures were transferred to a new plate, mixed with reaction solution and incubate for 10 min at room temperature. After that, the absorbance was read spectrophotometrically and the level of TAS and TOS were calculated according to the given equation.

U87MG cells [4] = assay: Total oxidant status (TOS) assay; format: cell-based, human; details: 48 h, all the concentrations
Experimental: as §1, §2

U87MG cells [5] = assay: qRT-PCR gene expression, custom plate with 15 cancer pathway genes; format: cell-based, human; details: IC50 concentration, 48 h
Experimental: To find out the differences in the level of gene expression in U87MG cells exposed using compound 10, a custom plate with 15 different genes involved in cancer related pathways was used via qRT-PCR studies.
Total RNA was isolated from cultured cells using PureLink® RNA Mini Kit (Invitrogen, Carlsbad, MA, USA) following the instructions described by the manufacturer. For quantitative reverse-transcription polymerase chain reaction (qRT-PCR), RNA was reverse-transcribed to cDNA by using a High-Capacity cDNA Reverse Transcription kit (Applied Biosystems, Foster City, CA, USA) according to the manufacturer’s protocol. Real-time PCR analyses were performed using the resulting total cDNA on a TaqMan® custom plate (Applied Biosystems) designed with 15 different genes (EGFR, AKT1, AKT2, NFκB1, NFκB1A, NFκB2, PTEN, KRAS, PIK3CA, PIK3R1, TP53, RAF1, BRAF, DVL1, FOS). Results were normalized to the expression of 18SRNA. qRT-PCR and data collection were performed on 7500 Fast Real-Time PCR (Applied Biosystems). Data analyses were performed using the The Applied Biosystems 7500 Fast System SDS software (Foster City, CA, USA).

[6] = system: peripheral human whole blood (PHWB) cells; assay: Biosafety: MTT cytotoxicity on cultured blood cells; format: cell-based; details: 0.78 to 50 μg/mL
Experimental: (§3) To evaluate biosafety of 10, its cytotoxic and genotoxic potential were investigated on cultured peripheral human whole blood (PHWB) cells. Firstly, the cytotoxicity testing was performed by MTT and LDH assays. The human blood cells exposed to 0.78 to 50 μg/mL of 10. […] Afterwards, genotoxic potential was assessed by SCE testing and determination of 8-OH-dG.
(§4) Human peripheral blood cells were cultured in order to evaluate the biosafety of 10. To assess the cytotoxicity and genotoxicity potential of 10, MTT, LDH, Sister chromatid exchange (SCE) and 8-hydroxy-2′-deoxyguanosine assays were assessed on cultured blood cells.

[7] = system: peripheral human whole blood (PHWB) cells; assay: Biosafety: LDH cytotoxicity on cultured blood cells; format: cell-based; details: 0.78 to 50 μg/mL
Experimental: as §3, §4

[8] = system: peripheral human whole blood (PHWB) cells; assay: Sister chromatid exchange (SCE) testing; format: cell-based; details: 72 h, vs control group
Experimental: as §3
Peripheral blood samples were incubated with 10 (50 μg/mL) at 37 °C for 72 h in culture medium (PB-MAX Karyotyping Medium, Gibco®, Baecelona, Spain) with 5.0 mg/mL of phytohemagglutinin (Sigma Aldrich, Steinheim, Germany). 5-Bromodeoxyuridine (BrdU) (10 μg/mL) was added to cell cultures at initiation. At 1.5 h before harvesting, colcemid (0.5 μg/mL) were added to cells. Then cells were treated with a hypotonic solution (0.075 M KCl), followed by three times fixation step in methanol/acetic acid (3:1, v/v). Cell suspensions were dropped on slides and air-dried. Three days later, the slides were stained according to the fluorescence plus Giemsa (FPG) procedure. Slides were observed under a fluorescence microscope and scores were calculated as SCEs per cell.

[9] = system: BF16F10-Nex2 (murine melanoma); design: method as in PMID 25920262; details: MTT test; cited from earlier work
[10] = system: HeLa (human cervical carcinoma); design: method as in PMID 25920262; details: MTT test; cited from earlier work
[11] = system: HL-60 (human leukemic cell); design: method as in PMID 25920262; details: MTT test; cited from earlier work
[12] = significant = >0.5 fold change vs untreated

| Molecule | IC50 (U87MG cells [1]) | melting point | other results |
| --- | --- | --- | --- |
| COC(=O)/C=C/c1cc(OC)c(OC)c(OC)c1 [Compound 2, (E)-Methyl-3-(3,4,5-trimethoxyphenyl)acrylate] | 85.13 ± 0.78 µg/mL (≈ 337 µM) | 135 to 136 °C |  |
| CCOC(=O)/C=C/c1cc(OC)c(OC)c(OC)c1 [Compound 3, (E)-Ethyl-3-(3,4,5-trimethoxyphenyl)acrylate] | 100 ± 1.12 µg/mL (≈ 376 µM) |  |  |
| CCCOC(=O)/C=C/c1cc(OC)c(OC)c(OC)c1 [Compound 4, (E)-Propyl-3-(3,4,5-trimethoxyphenyl)acrylate] | 78.39 ± 0.69 µg/mL (≈ 280 µM) |  |  |
| CCCCOC(=O)/C=C/c1cc(OC)c(OC)c(OC)c1 [Compound 5, (E)-Butyl-3-(3,4,5-trimethoxyphenyl)acrylate] | 57.9 ± 0.71 µg/mL (≈ 197 µM) | 74 to 75 °C |  |
| CCCCCOC(=O)/C=C/c1cc(OC)c(OC)c(OC)c1 [Compound 6, (E)-Pentyl 3-(3,4,5-trimethoxyphenyl)acrylate] | 31.7 ± 0.48 µg/mL (≈ 103 µM) | 105 to 106 °C |  |
| CCCCCCCCCCOC(=O)/C=C/c1cc(OC)c(OC)c(OC)c1 [Compound 7, (E)-Decyl-3-(3,4,5-trimethoxyphenyl)acrylate] | 34.9 ± 0.54 µg/mL (≈ 92.3 µM) | 37 to 38 °C |  |
| COCCOC(=O)/C=C/c1cc(OC)c(OC)c(OC)c1 [Compound 8, (E)-2-Methoxyethyl-3-(3,4,5-trimethoxyphenyl)acrylate] | 50.1 ± 0.62 µg/mL (≈ 169 µM) | 60 to 62 °C |  |
| COc1cc(/C=C/C(=O)OC(C)C)cc(OC)c1OC [Compound 9, (E)-Isopropyl 3-(3,4,5-Trimethoxyphenyl)acrylate] | 81.43 ± 0.55 µg/mL (≈ 291 µM) |  |  |
| COc1cc(/C=C/C(=O)OC(c2ccccc2)c2ccccc2)cc(OC)c1OC [Compound 10, (E)-Benzhydryl 3-(3,4,5-trimethoxyphenyl)acrylate] | 2.58 ± 0.35 µg/mL (≈ 6.38 µM) |  | cell viability / cellular proliferation rates (U87MG cells [1]; 0 to 50 μg/mL, 48 h, MTT and LDH analysis, compared to untreated cells): marked concentration-dependent inhibitory effect; apoptosis (nuclear morphology, Hoechst 33,258 staining) (U87MG cells [2]): enhanced chromatin condensation and nuclear fragmentation were detected; total antioxidant capacity (TAC) levels (U87MG cells [3]): significant increase of TAC levels; total oxidant status (TOS) levels (U87MG cells [4]): did not change the TOS levels; gene expression of BRAF, DVL1, EGFR, FOS, KRAS, NF-ĸB1A, RAF1, PIK3CA and PIK3R1 (U87MG cells [5]; <0.5 fold change): slight and insignificant alterations; AKT1 gene expression (U87MG cells [5]; [12]): down-regulated; AKT2 gene expression (U87MG cells [5]; [12]): down-regulated; NF-ĸB1 gene expression (U87MG cells [5]; vs untreated): up-regulated; NF-ĸB2 gene expression (U87MG cells [5]; vs untreated): up-regulated; PTEN gene expression (U87MG cells [5]; vs untreated): up-regulated; TP53 gene expression (U87MG cells [5]; vs untreated): up-regulated; cytotoxicity on blood cells, cell proliferation (MTT assay) [6]: did not lead to any significant (p > 0.05) changes in cell proliferation; cytotoxicity on blood cells, cell proliferation (LDH assay) [7]: did not lead to any significant (p > 0.05) changes in cell proliferation; genotoxicity, frequencies of SCEs [8]: not significant differences in the frequencies of SCEs |
| COc1cc(/C=C/C(=O)Oc2cc(C(C)C)ccc2C)cc(OC)c1OC [Compound 11, (E)-Carvacryl-3-(3,4,5-trimethoxyphenyl)acrylate] | 26.7 ± 0.47 µg/mL (≈ 72.1 µM) | 145 to 146 °C |  |
| COc1cc(/C=C/C(=O)OCCc2ccccc2)cc(OC)c1OC [Compound 12, (E)-Phenethyl 3-(3,4,5-trimethoxyphenyl)acrylate] | 24.8 ± 0.37 µg/mL (≈ 72.4 µM) |  |  |
| COc1cc(/C=C/C(=O)OCCc2ccc(C)cc2)cc(OC)c1OC [Compound 13, (E)-4-Methylphenethyl 3-(3,4,5-Trimethoxyphenyl)acrylate] | 30.3 ± 0.35 µg/mL (≈ 85.1 µM) |  |  |
| CCCCNC(=O)/C=C/c1cc(OC)c(OC)c(OC)c1 [Compound 14, (E)-N-Butyl-3-(3,4,5-trimethoxyphenyl)acrylamide] | 13.2 ± 0.32 µg/mL (≈ 45 µM) | 225 to 226 °C |  |
| COc1cc(/C=C/C(=O)NCc2ccccc2)cc(OC)c1OC [Compound 15, (E)-N-Benzyl-3-(3,4,5-trimethoxyphenyl)acrylamide] | 33.1 ± 0.41 µg/mL (≈ 101 µM) |  |  |
| COc1cc(/C=C/C(=O)NCc2ccc(C)cc2)cc(OC)c1OC [Compound 16, (E)-N-(4-Methylbenzyl)-3-(3,4,5-trimethoxyphenyl)acrylamide] | 22.7 ± 0.34 µg/mL (≈ 66.6 µM) | 203 to 205 °C |  |
| COc1ccc(CNC(=O)/C=C/c2cc(OC)c(OC)c(OC)c2)cc1 [Compound 17, (E)-N-(4-Methoxybenzyl)-3-(3,4,5-trimethoxyphenyl)acrylamide] | 22.7 ± 0.39 µg/mL (≈ 63.4 µM) | 225 to 226 °C |  |
| COc1cc(/C=C/C(=O)NCc2ccc(Cl)cc2)cc(OC)c1OC [Compound 18, (E)-N-(4-Chlorobenzyl)-3-(3,4,5-trimethoxyphenyl)acrylamide] | 43.4 ± 0.48 µg/mL (≈ 120 µM) | 215 to 218 °C |  |
| CCN(CC)C(=O)/C=C/c1cc(OC)c(OC)c(OC)c1 [Compound 19, (E)-N,N-Diethyl-3-(3,4,5-trimethoxyphenyl)acrylamide] | 36.1 ± 0.44 µg/mL (≈ 123 µM) | 197 to 198 °C |  |
| CC(=O)O[C@H]1C(=O)[C@@]2(C)[C@H]([C@H](OC(=O)c3ccccc3)[C@]3(O)C[C@H](OC(=O)[C@H](O)[C@@H](NC(=O)c4ccccc4)c4ccccc4)C(C)=C1C3(C)C)[C@]1(OC(C)=O)CO[C@@H]1C[C@@H]2O [paclitaxel, reference compound] | 2.12 µg/mL (≈ 2.48 µM) |  |  |
| piplaroxide |  |  | cytotoxic activity [9]: moderate activity; cytotoxic activity [10]: moderate activity; cytotoxic activity [11]: moderate activity |
